The text below walks through data of patent US20090215742A1, “AMIDE […]” (PFIZER, INC., priority 2005, published 2009).

The target in this assay is T1, HSP-90 (Homo sapiens, UniProt P07900).
T1 construct: fused on or other part: 6-His tag at the C-terminus
Briefly: HSP-90 SPA (scintillation proximity assay) competition binding assay, displacement of tritiated propyl-Geldanamycin. As to conditions: for inhibition at 1 µM: read-out: % inhibition @ 1 μM; for inhibition at 10 µM: read-out: % inhibition @ 10 μM.

By inhibition is commonly meant the change of the read-out against control, counted positive when it falls.

On to `O=C(c1ccc(O)cc1O)N1CCN(c2nc(-c3ccccc3C(F)(F)F)cc(=O)[nH]2)CC1` [Example 126, 2-[4-(2,4-dihydroxybenzoyl)piperazin-1-yl]-6-[2-(trifluoromethyl)phenyl]pyrimidin-4(3H)-one], for which the inhibition at 1 µM stood at 35.9% and the inhibition at 10 µM was found to be 71%.
Taken in the same sequence, the figures for `O=C(c1cc(-c2ccncn2)ccc1O)N1Cc2ccccc2C1` [Example 32, 2-(1,3-dihydro-2H-isoindol-2-ylcarbonyl)-4-pyrimidin-4-ylphenyl] were -11.9% and 14.2%.
The matching figures for `O=C(c1ccc(O)cc1O)N1CCCC1` [Example 90, 4-(pyrrolidin-1-ylcarbonyl)benzene-1,3-diol]: 23.2% and 65.4%.
Turning to `O=C(c1ccc(F)cc1O)N1Cc2ccccc2C1` [Example 29, 2-(1,3-dihydro-2H-isoindol-2-ylcarbonyl)-5-fluorophenyl], the inhibition at 1 µM was 0% and the inhibition at 10 µM was determined as 26.6%.
Taken in the same sequence, the figures for `O=C(c1ccc(O)cc1O)N1CCOCC(O)(COC2CCCC2)C1` (stereo not drawn) [Example 61, 4-({6-[(cyclopentyloxy)methyl]-6-hydroxy-1,4-oxazepan-4-yl}carbonyl)benzene 1,3-diol] were 37.7% and 75.6%.
On to `Cc1ccccc1C1CCCN1C(=O)c1ccc(O)cc1O` (stereo not drawn) [Example 73, 4-{[2-(2-methylphenyl)pyrrolidin-1-yl]carbonyl}benzene-1,3-diol], for which the inhibition at 1 µM was determined as 82.7% and the inhibition at 10 µM was 91.6%.
Taken in the same sequence, the figures for `O=C(c1ccc(O)cc1O)N1CCCC1c1ccc(Cl)cc1` (stereo not drawn) [Example 84, 4-{[2-(4-chlorophenyl)pyrrolidin-1-yl]carbonyl}benzene-1,3-diol] were 76.2% and 89.8%.
The matching figures for `O=C(c1ccc(O)cc1O)N1CCOCC2(CC(c3ccccc3)=NO2)C1` (stereo not drawn) [Example 130]: 46.2% and 82.4%.
Taken in the same sequence, the figures for `O=C(c1ccc(O)cc1O)N1CCC(COc2ccc(F)cc2Cl)C1` (stereo not drawn) [Example 89, 4-({3-[(2-chloro-4-fluorophenoxy)methyl]pyrrolidin-1-yl}carbonyl)benzene-1,3-diol] were 45.7% and 77.8%.
As for `O=C(c1ccc(O)cc1O)N1CCC(c2ncccn2)CC1` [Example 86, 4-[(4-pyrimidin-2-ylpiperidin-1-yl)carbonyl]benzene-1,3-diol], the inhibition at 1 µM was 23.9% and the inhibition at 10 µM amounted to 59.9%.
As to `O=C(c1ccc(O)cc1O)N1CCC2(CC1)CC(OCc1ccccc1F)CO2` (stereo not drawn) [Example 51, 4-({3-[(2-fluorobenzyl)oxy]-1-oxa-8-azaspiro[4.5]dec-8-yl}carbonyl)benzene-1,3-diol], the inhibition at 1 µM is 22.1% and the inhibition at 10 µM worked out at 70.9%.
On to `Cc1nccc(-c2ccc(O)c(C(=O)N3Cc4ccccc4C3)c2)n1` [Example 35, 2-(1,3-dihydro-2H-isoindol-2-ylcarbonyl)-4-(2-methylpyrimidin-4-yl)phenol], for which the inhibition at 1 µM was found to be 6.1% and the inhibition at 10 µM worked out at 32.8%.
Regarding `O=C(c1ccc(O)cc1O)N1CCC(c2ccc(F)cc2)CC1` [Example 70, 4-{[4-(4-fluorophenyl)piperidin-1-yl]carbonyl}benzene-1,3-diol], the inhibition at 1 µM worked out at 40.2% and the inhibition at 10 µM is 79.1%.
Taken in the same sequence, the figures for `CC(C)(C)CC1CCCCN1C(=O)c1ccc(O)cc1O` (stereo not drawn) [Example 41, 4-{[2-(2,2-dimethylpropyl)piperidin-1-yl]carbonyl}benzene-1,3-diol] were 64.8% and 86.8%.
For the molecule `Nc1nccc(-c2ccc(O)c(C(=O)N3Cc4ccccc4C3)c2)n1` [Example 31, 4-(2-aminopyrimidin-4-yl)-2-(1,3-dihydro-2H-isoindol-2-ylcarbonyl)phenol], the inhibition at 1 µM is 8.1% and the inhibition at 10 µM was 12.9%.
As to `O=C1CCCN1Cc1nnc2n1CCN(C(=O)c1ccc(O)cc1O)CC2` [Example 91, 1-{[7-(2,4-dihydroxybenzoyl)-6,7,8,9-tetrahydro-5H-[1,2,4]triazolo[4,3-d][1,4]diazepin-3-yl]methyl}pyrrolidin-2-one], the inhibition at 1 µM was -7.3% and the inhibition at 10 µM came out at 12.2%.
Taken in the same sequence, the figures for `COc1ccc2cc(O)c(C(=O)N3Cc4ccccc4C3)cc2c1` [Example 25, 3-(1,3-dihydro-2H-isoindol-2-ylcarbonyl)-6-methoxy-2-naphthol] were 9.9% and 13.7%.
Taken in the same sequence, the figures for `O=C(c1ccc(O)cc1O)N1CCCCC1` [Example 63, 4-(piperidin-1-ylcarbonyl)benzene-1,3-diol] were 32.2% and 72%.
Taken in the same sequence, the figures for `O=C(c1ccc(O)cc1O)N1CCCCC1c1cccc(F)c1` (stereo not drawn) [Example 57, 4-{[2-(3-fluorophenyl)piperidin-1-yl]carbonyl}benzene-1,3-diol] were 73.7% and 88.2%.
For `O=C(c1ccc(O)cc1O)N1CC=CCC1` [Example 97, 4-(3,6-dihydropyridin-1(2H)-ylcarbonyl)benzene-1,3-diol], the inhibition at 1 µM was found to be 62.7% and the inhibition at 10 µM amounted to 82.6%.
The matching figures for `C[C@H](c1ccccc1)N(C)C(=O)c1ccc(O)cc1O` [Example 67, 2,4-dihydroxy-N-methyl-N-(1-phenylethyl)benzamide]: -0.8% and 35.4%.
